Laboratory results published in patent US9126984B2, “4-(indol-3-yl)-pyrazole derivatives, pharmaceutical compositions and methods for use” (ITEOS THERAPEUTICS, priority 2013, dated 2015).

What was measured:
[1] = target: T1, human recombinant TDO2 enzyme (Homo sapiens, UniProt P48775); assay: Assay for TDO2 enzymatic activity determination; type: biochemical; conditions: human recombinant TDO2, L-Trp 1 mM, room temperature one hour, kynurenine absorbance at 480 nm
T1 construct: made in house
Procedure: To measure the TDO2 activity, the reaction mixture contained (final concentrations) potassium phosphate buffer (50 mM, pH 7.5), ascorbic acid (0.25 M), methylene blue (0.125 μM), catalase (40 units/mL, from bovine liver, Sigma), and human recombinant TDO2 enzyme (prepared as described in Dolusic et al. J. Med. Chem.; 2011, 54, 5320-5334; 0.9 μg) without or with the compounds of the present invention embodiments at the indicated concentrations (total volume 112.5 μL). The reaction was initiated by the addition of 37.5 μL of L-Trp (final concentration 1 mM) at room temperature. The reaction was conducted at room temperature during one hour and stopped by the addition of 30 μL of 30% (w/v) trichloroacetic acid.
To convert N-formylkynurenine into kynurenine, the reaction mixture was incubated at 65° C. for 30 min. Then 150 μL of the reaction mixture was mixed with 120 μL, of 2.5% (w/v) 4-(dimethylamino)-benzaldehyde in acetic acid and incubated for 5 min at room temperature. Kynurenine concentrations were determined by measuring the absorbance at 480 nm. A standard curve was made with pure kynurenine. The TDO activity was measured as described above using ten serial concentrations of certain embodiments of the compounds of the present invention. Data were fitted using the Prism software (GraphPad Software, Inc.).

[2] = target: T2, murine mastocytoma P815 cells overexpressing hTDO2 (Homo sapiens, UniProt P48775); assay: Cellular assay for TDO2 activity determination; type: cell-based; conditions: P815 cells overexpressing hTDO2, overnight incubation at 37° C., kynurenine absorbance at 480 nm
T2 construct: expressed in transfected cells; host or cells: murine mastocytoma P815 cells
T2 sequence (P48775 whole entry): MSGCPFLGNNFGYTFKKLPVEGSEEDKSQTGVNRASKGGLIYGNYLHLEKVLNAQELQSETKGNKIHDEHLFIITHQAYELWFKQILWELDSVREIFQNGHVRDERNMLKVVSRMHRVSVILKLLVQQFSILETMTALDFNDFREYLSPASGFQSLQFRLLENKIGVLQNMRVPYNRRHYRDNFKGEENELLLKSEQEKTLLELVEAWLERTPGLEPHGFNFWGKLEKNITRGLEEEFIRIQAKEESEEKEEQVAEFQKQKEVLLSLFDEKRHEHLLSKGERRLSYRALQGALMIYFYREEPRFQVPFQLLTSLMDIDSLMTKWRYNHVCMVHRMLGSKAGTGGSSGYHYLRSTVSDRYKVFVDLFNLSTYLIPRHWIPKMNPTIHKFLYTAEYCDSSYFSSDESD
Procedure: The assay was performed in 96-well flat bottom plates seeded with murine mastocytoma P815 cells overexpressing hTDO2 (prepared as described in Pilotte et al., PNAS, 2012, 109(7), 2497-2502), at a concentration of 5×10^4 cells/well in a final volume of 200 μL. To determine TDO or IDO activity, the cells were incubated overnight at 37° C. at 5% CO2 in IMDM (Invitrogen) supplemented with 2% FBS and 2% penicillin/streptomycin in the presence of the compounds of the present invention, at different concentrations.
The plates were then centrifuged 5 min at 1000 rpm, and 100 μL of the supernatant were collected in a conical plate, 30 uL of TCA 30% were added and a further centrifugated at 3000×g for 10 minutes. 100 μL of the supernatant were collected in a flat bottomed plate and 100 μL of 2% (w/v) 4-(dimethylamino)-benzaldehyde in acetic acid and incubated for 5 min at room temperature. Kynurenine concentrations were determined by measuring the absorbance at 480 nm. A standard curve was made with pure kynurenine. The TDO activity was measured as described above using ten serial concentrations of the compounds of the present invention. Data were fitted using the Prism software (GraphPad Software, Inc.).

T1 sequence (P48775 whole entry): as above

Compound | melting point [°C] | IC50 [1] [nM] | IC50 [2] [nM]
CC(=O)NCCn1cc(-c2c[nH]c3cc(F)ccc23)cn1 [Example 21, N-(2-(4-(6-fluoro-1H-indol-3-yl)-1H-pyrazol-1-yl)ethyl)acetamide] | 179.5 to 180.8 | 1000 to 10000 | 
Fc1ccc2c(-c3cnn(CCN4CCCC4)c3)c[nH]c2c1 [Example 29, 6-fluoro-3-(1-(2-(pyrrolidin-1-yl)ethyl)-1H-pyrazol-4-yl)-1H-indole] |  | 1000 to 10000 | < 1000
CS(=O)(=O)CCn1cc(-c2c[nH]c3cc(F)c(F)cc23)cn1 [Example 32, 5,6-difluoro-3-(1-(2-(methylsulfonyl)ethyl)-1H-pyrazol-4-yl)-1H-indole] | 170.6 to 171.9 | 1000 to 10000 | 
NC(=O)Cn1cc(-c2c[nH]c3cc(F)ccc23)cn1 [Example 38, 2-(4-(6-fluoro-1H-indol-3-yl)-1H-pyrazol-1-yl)acetamide] |  | 1000 to 10000 | 1000 to 10000
CNC(=O)Cn1cc(-c2c[nH]c3cc(F)ccc23)cn1 [Example 39, 2-(4-(6-fluoro-1H-indol-3-yl)-1H-pyrazol-1-yl)-N-methylacetamide] |  | 1000 to 10000 | 1000 to 10000
CN(C)C(=O)Cn1cc(-c2c[nH]c3cc(F)ccc23)cn1 [Example 40, 2-(4-(6-fluoro-1H-indol-3-yl)-1H-pyrazol-1-yl)-N,N-dimethylacetamide] |  | 1000 to 10000 | 1000 to 10000
Fc1ccc2c(-c3cnn(CC4CCNCC4)c3)c[nH]c2c1 [Example 43, 6-fluoro-3-(1-(piperidin-4-ylmethyl)-1H-pyrazol-4-yl)-1H-indole] |  | < 1000 | < 1000
FCCN1CCC(Cn2cc(-c3c[nH]c4cc(F)ccc34)cn2)CC1 [Example 46, 6-fluoro-3-(1-((1-(2-fluoroethyl)piperidin-4-yl)methyl)-1H-pyrazol-4-yl)-1H-indole] |  | < 1000 | < 1000
OCCN1CCC(Cn2cc(-c3c[nH]c4cc(F)ccc34)cn2)CC1 [Example 47, 2-(4-((4-(6-fluoro-1H-indol-3-yl)-1H-pyrazol-1-yl)methyl)piperidin-1-yl)ethanol] |  | < 1000 | 1000 to 10000
OC(CN1CCC(Cn2cc(-c3c[nH]c4cc(F)ccc34)cn2)CC1)C(F)(F)F (stereo not drawn) [Example 48, 1,1,1-trifluoro-3-(4-((4-(6-fluoro-1H-indol-3-yl)-1H-pyrazol-1-yl)methyl)piperidin-1-yl)propan-2-ol] |  | < 1000 | < 1000
CC(=O)N1CCC(Cn2cc(-c3c[nH]c4cc(F)ccc34)cn2)CC1 [Example 51, 1-(4-((4-(6-fluoro-1H-indol-3-yl)-1H-pyrazol-1-yl)methyl)piperidin-1-yl)ethanone] |  | 1000 to 10000 | < 1000
Fc1ccc2c(-c3cnn(CC4CCN(C5CC5)CC4)c3)c[nH]c2c1 [Example 52, 3-(1-((1-cyclopropylpiperidin-4-yl)methyl)-1H-pyrazol-4-yl)-6-fluoro-1H-indole] |  | < 1000 | < 1000
CN1CCC(Cn2cc(-c3c[nH]c4cc(F)ccc34)cn2)CC1 [Example 53, 6-fluoro-3-(1-((1-methylpiperidin-4-yl)methyl)-1H-pyrazol-4-yl)-1H-indole] |  | < 1000 | < 1000
CS(=O)(=O)N1CCC(Cn2cc(-c3c[nH]c4cc(F)ccc34)cn2)CC1 [Example 54, 6-fluoro-3-(1-((1-(methylsulfonyl)piperidin-4-yl)methyl)-1H-pyrazol-4-yl)-1H-indole] |  | 1000 to 10000 | 1000 to 10000
NC(=O)[C@H]1C[C@@H](n2cc(-c3c[nH]c4cc(F)ccc34)cn2)C1 [Example 61, (1S,3R)-3-(4-(6-fluoro-1H-indol-3-yl)-1H-pyrazol-1-yl)cyclobutanecarboxamide] |  | 1000 to 10000 | < 1000
NC(=O)[C@H]1C[C@H](n2cc(-c3c[nH]c4cc(F)ccc34)cn2)C1 [Example 62, (1R,3R)-3-(4-(6-fluoro-1H-indol-3-yl)-1H-pyrazol-1-yl)cyclobutanecarboxamide] |  | 1000 to 10000 | 1000 to 10000
O[C@H]1CC[C@H](n2cc(-c3c[nH]c4cc(F)ccc34)cn2)CC1 [Example 69, (1R,4R)-4-(4-(6-fluoro-1H-indol-3-yl)-1H-pyrazol-1-yl)cyclohexanol] |  | 1000 to 10000 | 1000 to 10000

Compound | melting point [°C] | IC50 [1] [nM] | IC50 [2] [nM]
Fc1ccc2c(-c3cn[nH]c3)c[nH]c2c1 [Example 70, 6-fluoro-3-(1H-pyrazol-4-yl)-1H-indole] |  | < 1000 | < 1000
Fc1cc2[nH]cc(-c3cn[nH]c3)c2cc1F [Example 71, 5,6-difluoro-3-(1H-pyrazol-4-yl)-1H-indole] |  | < 1000 | < 1000
Cn1cc(-c2c[nH]c3cc(F)ccc23)cn1 [Example 73, 6-fluoro-3-(1-methyl-1H-pyrazol-4-yl)-1H-indole] |  | < 1000 | < 1000
O=C(O)CCC(=O)N1CCC(n2cc(-c3c[nH]c4cc(F)ccc34)cn2)CC1 [Example 80, 4-(4-(4-(6-fluoro-1H-indol-3-yl)-1H-pyrazol-1-yl)piperidin-1-yl)-4-oxobutanoic acid] | 226 to 228 | 10000 to 100000 | 
CN(C)CC(=O)N1CCC(n2cc(-c3c[nH]c4cc(F)ccc34)cn2)CC1 [Example 83, 2-(dimethylamino)-1-(4-(4-(6-fluoro-1H-indol-3-yl)-1H-pyrazol-1-yl)piperidin-1-yl)ethanone] | 193.7 to 196.1 | 1000 to 10000 | 
O=C(CO)N1CCC(n2cc(-c3c[nH]c4cc(F)ccc34)cn2)CC1 [Example 84, 1-(4-(4-(6-fluoro-1H-indol-3-yl)-1H-pyrazol-1-yl)piperidin-1-yl)-2-hydroxyethanone] | 99.9 to 102.1 | 1000 to 10000 | 
COCC(=O)N1CCC(n2cc(-c3c[nH]c4cc(F)ccc34)cn2)CC1 [Example 85, 1-(4-(4-(6-fluoro-1H-indol-3-yl)-1H-pyrazol-1-yl)piperidin-1-yl)-2-methoxyethanone] |  | 1000 to 10000 | 1000 to 10000
CC(C)C(=O)N1CCC(n2cc(-c3c[nH]c4cc(F)ccc34)cn2)CC1 [Example 86, 1-(4-(4-(6-fluoro-1H-indol-3-yl)-1H-pyrazol-1-yl)piperidin-1-yl)-2-methylpropan-1-one] | 210.2 to 211 | 1000 to 10000 | 
CC(C)(C)C(=O)N1CCC(n2cc(-c3c[nH]c4cc(F)ccc34)cn2)CC1 [Example 87, 1-(4-(4-(6-fluoro-1H-indol-3-yl)-1H-pyrazol-1-yl)piperidin-1-yl)-2,2-dimethylpropan-1-one] | 231 to 232 | 1000 to 10000 | 
O=C(C1CC1)N1CCC(n2cc(-c3c[nH]c4cc(F)ccc34)cn2)CC1 [Example 88, cyclopropyl(4-(4-(6-fluoro-1H-indol-3-yl)-1H-pyrazol-1-yl)piperidin-1-yl)methanone] | 190.7 to 191.4 | 1000 to 10000 | 
Fc1ccc2c(-c3cnn(-c4cccnn4)c3)c[nH]c2c1 [Example 107, 6-fluoro-3-(1-(pyridazin-3-yl)-1H-pyrazol-4-yl)-1H-indole] |  | 1000 to 10000 | < 1000
Nc1ccc(-n2cc(-c3c[nH]c4cc(F)ccc34)cn2)nn1 [Example 109, 6-(4-(6-fluoro-1H-indol-3-yl)-1H-pyrazol-1-yl)pyridazin-3-amine] |  | 1000 to 10000 | < 1000
Fc1ccc2c(-c3cnn(-c4ccnnc4)c3)c[nH]c2c1 [Example 110, 6-fluoro-3-(1-(pyridazin-4-yl)-1H-pyrazol-4-yl)-1H-indole] |  | 1000 to 10000 | 1000 to 10000
Fc1ccc2c(-c3cnn(-c4ccccn4)c3)c[nH]c2c1 [Example 111, 6-fluoro-3-(1-(pyridin-2-yl)-1H-pyrazol-4-yl)-1H-indole] |  | < 1000 | < 1000
Fc1ccc2c(-c3cnn(-c4cccnc4)c3)c[nH]c2c1 [Example 112, 6-fluoro-3-(1-(pyridin-3-yl)-1H-pyrazol-4-yl)-1H-indole] |  | < 1000 | < 1000
Fc1ccc2c(-c3cnn(-c4ccncc4)c3)c[nH]c2c1 [Example 113, 6-fluoro-3-(1-(pyridin-4-yl)-1H-pyrazol-4-yl)-1H-indole] |  | < 1000 | < 1000
